Target: T1, p60^c-src (Homo sapiens, UniProt P12931)
T1 construct: purchased Upstate Biotechnologies
Test: Src kinase assay (ELISA format)
Assay type: biochemical
Protocol: Inhibitors of p60^c-src (partially purified preparation purchased from Upstate Biotechnologies) tyrosine kinase activity are analyzed in an ELISA format. The Boehringer Mannheim Tyrosine Kinase Assay Kit (Catalog number 1-534505) with a cdc2 substrate peptide containing Tyr15 is used for the assay. HRP-conjugated anti-phosphotyrosine is used to detect phosphorylated peptide via a color reaction. Conditions recommended by the manufacturer are employed.
Reaction conditions: Five microliter aliquots of each compound prepared fresh at the time of the assay are added as a solution in 10mM HEPES pH 7.5, 10% DMSO to the reaction well. Thirty-five microliters of reaction mix containing Src, buffer and peptide/bovine serum albumin mix are added to the compound wells and incubated at 30°C for 10 minutes (reaction buffer: 50mM TrisHCl pH 7.5, 10mM MgCl2, 0.1mM EGTA, 0.5mM Na3VO4). The reaction is started by addition of 10 microliters of ATP, incubated at 30°C for 1 hour, and stopped by addition of 20 microliters of 0.5M EDTA. The reaction mixture with the phosphorylated peptide was then transferred to a streptavidin-coated microtiter plate (provided in the kit) and allowed to bind for 20 minutes. […] Substrate (provided in the kit) was added and absorbance at 405nm was measured.
Activity was determined as % inhibition as calculated by the formula: (1 - Abs/Abs(max)) x 100 = % inhibition. […]

T1 sequence (P12931 whole entry): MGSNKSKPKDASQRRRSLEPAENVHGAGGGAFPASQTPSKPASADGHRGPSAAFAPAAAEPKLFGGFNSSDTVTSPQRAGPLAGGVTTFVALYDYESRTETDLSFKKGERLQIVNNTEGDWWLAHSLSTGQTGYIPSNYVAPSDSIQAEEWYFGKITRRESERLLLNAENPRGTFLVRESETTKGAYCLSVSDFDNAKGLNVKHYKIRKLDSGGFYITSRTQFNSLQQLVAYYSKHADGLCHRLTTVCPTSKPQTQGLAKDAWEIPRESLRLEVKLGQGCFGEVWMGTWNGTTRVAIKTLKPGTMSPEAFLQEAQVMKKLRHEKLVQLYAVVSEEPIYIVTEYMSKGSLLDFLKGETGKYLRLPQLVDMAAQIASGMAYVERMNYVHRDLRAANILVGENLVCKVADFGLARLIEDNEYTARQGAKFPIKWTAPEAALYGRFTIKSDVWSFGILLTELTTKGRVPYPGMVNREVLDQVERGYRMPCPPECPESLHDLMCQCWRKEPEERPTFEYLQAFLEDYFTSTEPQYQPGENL

**Q.** With `CCN1CCN(CCCCN2CCOc3cc4c(Nc5ccc(Cl)cc5Cl)c(C#N)cnc4cc32)CC1` [Example 24, 9-(2,4-Dichloroanilino)-4-[4-(4-ethyl-1-piperazinyl)butyl]-3,4-dihydro-2H-[1,4]oxazino[2,3-g]quinoline-8-carbonitrile] as the compound, how does the IC50 read?
**A.** 1010 nM

— EP1268487B1, “TRICYCLIC PROTEIN KINASE INHIBITORS” (Wyeth, priority 2000, dated 2001)
